According to PubChem BioAssay (NCI):
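The compound was tested at five concentrations on cells cultured in 96-well plates, with a 48-hour exposure period. TGI: total growth inhibition.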

Columns and labels:
Experiment in all cases: NCI-60 cell line screen, 48 h
ACHN renal = tested on: ACHN renal
EKVX NSCLC = tested on: EKVX NSCLC
MDA-MB-435 = tested on: MDA-MB-435
NCI-H522 lung = tested on: NCI-H522 lung
NCI/ADR-RES ovarian = tested on: NCI/ADR-RES ovarian
OVCAR-4 ovarian = tested on: OVCAR-4 ovarian
OVCAR-5 ovarian = tested on: OVCAR-5 ovarian
SK-OV-3 ovarian = tested on: SK-OV-3 ovarian
TK-10 renal = tested on: TK-10 renal
UO-31 renal = tested on: UO-31 renal

For CCOC(=O)CCC(NC(=O)c1ccc(Nc2nc3ccccc3nc2C(=O)OCC)cc1)C(=O)OCC (stereo not given), the TGI (ACHN renal) was 11.5 µM, the TGI (EKVX NSCLC) was 40.1 µM and the TGI (MDA-MB-435) was > 100 µM. It also gave a TGI (NCI-H522 lung) of 16.7 µM, a TGI (NCI/ADR-RES ovarian) of 27 µM and a TGI (OVCAR-4 ovarian) of 3.91 µM. For the same compound, the TGI (OVCAR-5 ovarian) was > 56.4 µM, the TGI (SK-OV-3 ovarian) was 8.01 µM and the TGI (TK-10 renal) was 6.43 µM. For the same compound, the TGI (UO-31 renal) was 12.2 µM.

With CC(C)NC(=O)OCc1c(COC(=O)NC(C)C)c(-c2cc[n+](COC(=O)C3CCCCC3)cc2)n2c1CCC2 the TGI (ACHN renal) was > 100 µM, the TGI (EKVX NSCLC) was > 100 µM and the TGI (MDA-MB-435) was > 100 µM. For the same compound, the TGI (NCI-H522 lung) was > 100 µM, the TGI (NCI/ADR-RES ovarian) was > 100 µM and the TGI (OVCAR-4 ovarian) was > 100 µM. For the same compound, the TGI (OVCAR-5 ovarian) was > 100 µM, the TGI (SK-OV-3 ovarian) was > 100 µM and the TGI (TK-10 renal) was > 100 µM. The TGI (UO-31 renal) was > 100 µM.

With O=C(NCCCCCN1CCC2(CCCCC2)CC1)C(C1CCCCC1)C1CCCCC1 the TGI (ACHN renal) was 8.68 µM, the TGI (EKVX NSCLC) was 9.66 µM and the TGI (MDA-MB-435) was 3.74 µM. For the same compound, the TGI (NCI-H522 lung) was 9.01 µM, the TGI (NCI/ADR-RES ovarian) was 14.9 µM and the TGI (OVCAR-4 ovarian) was 14.5 µM. It also gave a TGI (OVCAR-5 ovarian) of 17.7 µM, a TGI (SK-OV-3 ovarian) of 15.1 µM and a TGI (TK-10 renal) of 10.4 µM. The TGI (UO-31 renal) was 8.46 µM.

In the case of NS(=O)(=O)c1ccc(N=Nc2ccc(O)c(C(=O)O)c2)cc1, the TGI (ACHN renal) is reported as > 100 µM, the TGI (EKVX NSCLC) is reported as > 100 µM and the TGI (MDA-MB-435) is reported as > 100 µM. For the same compound, the TGI (NCI-H522 lung) was > 100 µM, the TGI (NCI/ADR-RES ovarian) was > 100 µM and the TGI (OVCAR-4 ovarian) was > 100 µM. The TGI (OVCAR-5 ovarian) was > 100 µM, the TGI (SK-OV-3 ovarian) was > 100 µM and the TGI (TK-10 renal) was > 100 µM. For the same compound, the TGI (UO-31 renal) was > 100 µM.

O=S(=O)(O)c1cc(S(=O)(=O)O)c2c(N=Nc3ccc(N=Nc4ccccc4)cc3)c(O)ccc2c1 was tested, and the TGI (ACHN renal) was > 100 µM, the TGI (EKVX NSCLC) was > 100 µM and the TGI (MDA-MB-435) was > 100 µM. The TGI (NCI-H522 lung) was > 100 µM, the TGI (NCI/ADR-RES ovarian) was > 100 µM and the TGI (OVCAR-4 ovarian) was > 100 µM. The TGI (OVCAR-5 ovarian) was > 100 µM, the TGI (SK-OV-3 ovarian) was > 100 µM and the TGI (TK-10 renal) was > 100 µM. For the same compound, the TGI (UO-31 renal) was > 100 µM.
